The test system of assay [1] is HUVEC. Description: Antiangiogenic activity in HUVEC assessed as inhibition of VEGF-stimulated proliferation after 72 hrs by WST-1 assay. The assay is classed as functional, cell-based. As to conditions: Homo sapiens. Background: Formazan colour is commonly taken as a measure of viable cells.
Assay [2] concerns the target Focal adhesion kinase 1 (Homo sapiens, UniProt Q05397). Description: Inhibition of pre-activated recombinant full length FAK (unknown origin) using ULight labeled poly(Glu/Tyr) as substrate after 1.6 hrs by TR-FRET assay.

Focal adhesion kinase 1, sequence (Q05397 whole entry): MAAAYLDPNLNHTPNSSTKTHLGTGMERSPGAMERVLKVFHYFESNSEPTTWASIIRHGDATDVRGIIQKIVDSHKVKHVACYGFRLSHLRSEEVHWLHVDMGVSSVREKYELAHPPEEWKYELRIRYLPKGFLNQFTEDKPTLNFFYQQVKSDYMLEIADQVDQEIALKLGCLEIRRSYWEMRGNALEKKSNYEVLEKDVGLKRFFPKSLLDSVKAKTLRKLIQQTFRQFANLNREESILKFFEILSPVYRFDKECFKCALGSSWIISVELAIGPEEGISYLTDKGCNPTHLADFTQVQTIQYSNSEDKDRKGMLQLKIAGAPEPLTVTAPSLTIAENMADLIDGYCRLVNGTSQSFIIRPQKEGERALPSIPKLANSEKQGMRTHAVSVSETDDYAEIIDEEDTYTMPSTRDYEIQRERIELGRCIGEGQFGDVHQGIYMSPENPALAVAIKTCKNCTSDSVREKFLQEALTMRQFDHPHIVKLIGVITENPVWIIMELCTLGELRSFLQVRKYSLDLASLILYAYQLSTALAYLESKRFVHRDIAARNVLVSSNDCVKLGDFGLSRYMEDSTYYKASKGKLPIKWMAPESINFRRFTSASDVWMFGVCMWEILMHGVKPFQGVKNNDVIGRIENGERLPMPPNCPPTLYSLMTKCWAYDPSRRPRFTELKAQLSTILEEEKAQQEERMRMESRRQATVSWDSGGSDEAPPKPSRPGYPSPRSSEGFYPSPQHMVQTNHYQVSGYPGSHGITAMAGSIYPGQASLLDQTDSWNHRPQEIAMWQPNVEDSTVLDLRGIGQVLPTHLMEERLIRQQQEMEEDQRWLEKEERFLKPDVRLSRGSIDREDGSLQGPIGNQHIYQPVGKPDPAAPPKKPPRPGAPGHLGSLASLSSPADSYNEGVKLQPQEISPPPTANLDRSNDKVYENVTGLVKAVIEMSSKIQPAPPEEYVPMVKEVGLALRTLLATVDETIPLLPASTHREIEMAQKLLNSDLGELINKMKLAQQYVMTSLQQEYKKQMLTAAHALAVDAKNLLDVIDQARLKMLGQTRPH

As a reminder, the IC50 is the midpoint of a concentration-inhibition curve. For `CC(C)NC(=O)c1ccccc1Nc1ncnc(Nc2ccc(CN)cc2)n1`, the figures for the IC50 in assay [1] and in assay [2] were 3.2 µM and 1 µM, respectively. For `CCC(CC)NC(=O)c1ccccc1Nc1ncnc(Nc2ccc(CN)cc2)n1` the same measures were 1.4 µM and 1.9 µM. In the same order, the values of `COc1cc(Nc2ncnc(Nc3ccccc3C(=O)NC(C)C)n2)cc(OC)c1OC` are 4 µM and 2.2 µM. In the same order, the values of `COc1cc(Nc2ncnc(Nc3ccccc3C(=O)NC3CC3)n2)cc(OC)c1OC` are 5.9 µM and 6.1 µM. Take `CCC(CC)NC(=O)c1ccccc1Nc1ncnc(Nc2cc(OC)c(OC)c(OC)c2)n1`: the IC50 was determined as 5.3 µM in assay [1] and 6 µM in assay [2].

Regarding `COc1cc(Nc2ncnc(Nc3ccccc3C(=O)NC3CCCC3)n2)cc(OC)c1OC`, the half-inhibitory concentration (IC50) came out at 3.9 µM in assay [1] and 5.2 µM in assay [2]. For `COc1cc(Nc2ncnc(Nc3ccccc3C(=O)NCCO)n2)cc(OC)c1OC` the same measures were 17.5 µM and 23.8 µM.

On to `COc1cc(Nc2ncnc(Nc3ccccc3C(=O)NCCN(C)C)n2)cc(OC)c1OC`, for which the IC50 was 9.4 µM in assay [1] and 10.2 µM in assay [2]. In the case of `COC(=O)c1ccccc1Nc1ncnc(Nc2cc(OC)c(OC)c(OC)c2)n1`, the results for the IC50 in assay [1] and in assay [2] were 23.2 µM and 17.9 µM, respectively. In the same order, the values of `COc1ccc(Nc2ncnc(Nc3ccccc3NS(C)(=O)=O)n2)c(OC)c1` are 2.7 µM and 6.1 µM. For `CNC(=O)c1ccccc1Nc1ncnc(Nc2ccc(OC)cc2OC)n1` the same measures were 6.5 µM and 1.5 µM. For `COc1ccc(Nc2ncnc(Nc3ccccc3NC(C)=O)n2)c(OC)c1` the same measures were 11.2 µM and 21.1 µM. On to `CNC(=O)c1ccccc1Nc1ncnc(Nc2ccc(N3CCOCC3)cc2OC)n1`, for which, in assay [1], the IC50 was found to be 1.5 µM. For the compound `CNC(=O)c1ccccc1Nc1ncnc(Nc2cc(CCC(N)=O)c(OC)c(OC)c2)n1`, the IC50 turned out to be 1.3 µM in assay [1] and 0.3 µM in assay [2]. Turning to `CS(=O)(=O)Nc1ccccc1Nc1ncnc(Nc2ccc(CN)cc2)n1`, the IC50 in assay [1] was 3.9 µM; in assay [2] it was 2.3 µM. Regarding `CNC(=O)c1ccccc1Nc1ncnc(Nc2ccc(CN)cc2)n1`, the IC50 in assay [1] amounted to 2.1 µM; in assay [2], 0.16 µM. As to `CCNC(=O)c1ccccc1Nc1ncnc(Nc2ccc(CN)cc2)n1`, the IC50 in assay [1] is 2.8 µM; in assay [2], 0.44 µM. In the same order, the values of `COc1cc(Nc2nc(Cl)nc(Nc3ccccc3NS(C)(=O)=O)n2)cc(OC)c1OC` are 9.5 µM and 41.9 µM. In the same order, the values of `COc1cc(Nc2ncnc(Nc3ccccc3NS(C)(=O)=O)n2)cc(OC)c1OC` are 6.1 µM and 5.1 µM. Consider `CNc1nc(Nc2cc(OC)c(OC)c(OC)c2)nc(Nc2ccccc2NS(C)(=O)=O)n1`, for which the IC50 was 34.2 µM in assay [1] and 65.9 µM in assay [2]. For the compound `COc1cc(Nc2nc(Cl)nc(Nc3cccc(NS(C)(=O)=O)c3)n2)cc(OC)c1OC`, the IC50 in assay [1] is 13.3 µM; in assay [2] it was 57.8 µM. In the same order, the values of `COc1cc(Nc2ncnc(Nc3cccc(NS(C)(=O)=O)c3)n2)cc(OC)c1OC` are 7.2 µM and 9.2 µM.

For the compound `CNc1nc(Nc2cccc(NS(C)(=O)=O)c2)nc(Nc2cc(OC)c(OC)c(OC)c2)n1`, the IC50 in assay [1] worked out at 10 µM; in assay [2], 41.3 µM.

As to `COc1cc(Nc2nc(C)nc(Nc3ccccc3NS(C)(=O)=O)n2)cc(OC)c1OC`, the half-inhibitory concentration (IC50) in assay [1] came to 8.5 µM; in assay [2], 7.9 µM. Take `COc1cc(Nc2nc(C)nc(Nc3ccccc3NC(C)=O)n2)cc(OC)c1OC`: the IC50 in assay [1] came out at 18.8 µM; in assay [2] it was 50.8 µM. Turning to `COC(=O)Nc1ccccc1Nc1nc(C)nc(Nc2cc(OC)c(OC)c(OC)c2)n1`, the IC50 in assay [1] is 15.8 µM; in assay [2], 35.9 µM. For `COc1cc(Nc2nc(C)nc(Nc3ccccc3NC(=O)N(C)C)n2)cc(OC)c1OC` the same measures were 27.3 µM and 54.3 µM. For `COc1cc(Nc2nc(Nc3ccccc3NC(C)=O)nc(C(F)(F)F)n2)cc(OC)c1OC` the same measures were 33.3 µM and 126 µM. For `CNC(=O)c1ccccc1Nc1ncnc(Nc2cc(OC)c(OC)c(OC)c2)n1` the same measures were 2.5 µM and 0.4 µM. `CNC(=O)c1ccccc1Nc1nc(Nc2ccc(N3CCOCC3)cc2OC)ncc1Cl`: in assay [1], the IC50 turned out to be 1 µM.

For the origin of these results see ChEMBL document CHEMBL2406973, “Synthesis of novel diarylamino-1,3,5-triazine derivatives as FAK inhibitors with anti-angiogenic activity” (Bioorg Med Chem Lett, 2013).
